Experimental data as given in ChEMBL document CHEMBL4507276 (2021).

Columns and labels:
[1] = target: Alpha-2C adrenergic receptor (Homo sapiens) (UniProt P18825); conditions: Compound concentration 10.0 uM
[2] = target: MAP kinase-activated protein kinase 3 (Homo sapiens) (UniProt Q16644); experiment: MAPKAPK3 Invitrogen selectivity data (BI); conditions: Compound concentration 3.0 uM
[3] = target: Ribosomal protein S6 kinase beta-1 (Homo sapiens) (UniProt P23443); experiment: RPS6KB1 Invitrogen selectivity data (BI); conditions: Compound concentration 3.0 uM
Sequence of Ribosomal protein S6 kinase beta-1 (Homo sapiens) (P23443 whole entry, looked up): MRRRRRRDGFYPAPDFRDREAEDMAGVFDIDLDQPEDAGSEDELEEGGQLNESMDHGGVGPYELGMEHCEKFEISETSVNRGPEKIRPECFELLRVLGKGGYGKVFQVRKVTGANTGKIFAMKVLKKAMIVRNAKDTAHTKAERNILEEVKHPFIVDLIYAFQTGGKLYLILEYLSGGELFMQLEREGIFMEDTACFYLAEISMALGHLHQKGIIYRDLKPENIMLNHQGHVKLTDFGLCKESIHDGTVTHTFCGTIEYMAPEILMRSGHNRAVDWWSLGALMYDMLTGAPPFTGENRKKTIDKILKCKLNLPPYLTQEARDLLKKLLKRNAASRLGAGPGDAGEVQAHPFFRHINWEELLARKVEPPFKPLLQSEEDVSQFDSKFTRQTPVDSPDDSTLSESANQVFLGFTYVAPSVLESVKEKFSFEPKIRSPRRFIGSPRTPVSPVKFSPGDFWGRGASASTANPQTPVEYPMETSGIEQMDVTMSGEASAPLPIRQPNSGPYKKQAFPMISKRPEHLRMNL

[4] = target: T1, Serine/threonine-protein kinase Sgk3 (Homo sapiens) (UniProt Q96BR1); experiment: SGKL Invitrogen selectivity data (BI); conditions: Compound concentration 3.0 uM
T1 sequence (whole entry): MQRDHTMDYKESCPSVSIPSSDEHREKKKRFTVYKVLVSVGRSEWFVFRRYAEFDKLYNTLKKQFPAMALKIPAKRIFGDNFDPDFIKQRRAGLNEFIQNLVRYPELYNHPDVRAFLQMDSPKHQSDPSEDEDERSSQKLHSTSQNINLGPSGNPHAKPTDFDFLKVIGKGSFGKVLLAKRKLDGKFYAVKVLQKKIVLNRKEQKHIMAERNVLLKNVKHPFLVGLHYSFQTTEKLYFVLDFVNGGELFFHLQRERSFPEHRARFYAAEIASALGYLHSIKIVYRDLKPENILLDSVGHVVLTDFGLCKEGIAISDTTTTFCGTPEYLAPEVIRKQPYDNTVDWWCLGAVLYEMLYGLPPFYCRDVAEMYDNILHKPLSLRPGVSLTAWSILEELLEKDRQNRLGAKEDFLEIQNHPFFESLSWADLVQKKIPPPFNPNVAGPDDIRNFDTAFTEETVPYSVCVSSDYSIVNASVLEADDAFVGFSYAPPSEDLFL

[5] = target: Histamine H2 receptor (Homo sapiens) (UniProt P25021); experiment: H2/APT/HS Cerep selectivity data (BI); conditions: filed as antagonist, Compound concentration 20.0 uM
Sequence of Histamine H2 receptor (Homo sapiens) (P25021 whole entry): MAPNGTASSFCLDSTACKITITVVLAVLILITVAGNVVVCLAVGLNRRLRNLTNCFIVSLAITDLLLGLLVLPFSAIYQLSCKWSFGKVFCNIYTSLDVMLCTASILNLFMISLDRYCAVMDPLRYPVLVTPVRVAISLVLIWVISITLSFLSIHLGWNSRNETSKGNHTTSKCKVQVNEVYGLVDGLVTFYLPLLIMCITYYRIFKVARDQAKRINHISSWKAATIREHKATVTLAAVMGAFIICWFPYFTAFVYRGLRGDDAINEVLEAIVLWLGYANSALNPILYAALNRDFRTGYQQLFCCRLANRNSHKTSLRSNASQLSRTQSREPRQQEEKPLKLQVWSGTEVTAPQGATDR

[6] = system: Platelet-derived growth factor receptor alpha (Homo sapiens), P16234 [T674I]; experiment: PDGFRA T674I Invitrogen selectivity data (BI); conditions: Compound concentration 3.0 uM
[7] = target: Casein kinase I isoform delta (Homo sapiens) (UniProt P48730); experiment: CSNK1D Invitrogen selectivity data (BI); conditions: Compound concentration 3.0 uM
[8] = target: Focal adhesion kinase 1 (Homo sapiens) (UniProt Q05397); experiment: PTK2 Invitrogen selectivity data (BI); conditions: Compound concentration 3.0 uM
Sequence of Focal adhesion kinase 1 (Homo sapiens) (Q05397 2-1052 limits assumed): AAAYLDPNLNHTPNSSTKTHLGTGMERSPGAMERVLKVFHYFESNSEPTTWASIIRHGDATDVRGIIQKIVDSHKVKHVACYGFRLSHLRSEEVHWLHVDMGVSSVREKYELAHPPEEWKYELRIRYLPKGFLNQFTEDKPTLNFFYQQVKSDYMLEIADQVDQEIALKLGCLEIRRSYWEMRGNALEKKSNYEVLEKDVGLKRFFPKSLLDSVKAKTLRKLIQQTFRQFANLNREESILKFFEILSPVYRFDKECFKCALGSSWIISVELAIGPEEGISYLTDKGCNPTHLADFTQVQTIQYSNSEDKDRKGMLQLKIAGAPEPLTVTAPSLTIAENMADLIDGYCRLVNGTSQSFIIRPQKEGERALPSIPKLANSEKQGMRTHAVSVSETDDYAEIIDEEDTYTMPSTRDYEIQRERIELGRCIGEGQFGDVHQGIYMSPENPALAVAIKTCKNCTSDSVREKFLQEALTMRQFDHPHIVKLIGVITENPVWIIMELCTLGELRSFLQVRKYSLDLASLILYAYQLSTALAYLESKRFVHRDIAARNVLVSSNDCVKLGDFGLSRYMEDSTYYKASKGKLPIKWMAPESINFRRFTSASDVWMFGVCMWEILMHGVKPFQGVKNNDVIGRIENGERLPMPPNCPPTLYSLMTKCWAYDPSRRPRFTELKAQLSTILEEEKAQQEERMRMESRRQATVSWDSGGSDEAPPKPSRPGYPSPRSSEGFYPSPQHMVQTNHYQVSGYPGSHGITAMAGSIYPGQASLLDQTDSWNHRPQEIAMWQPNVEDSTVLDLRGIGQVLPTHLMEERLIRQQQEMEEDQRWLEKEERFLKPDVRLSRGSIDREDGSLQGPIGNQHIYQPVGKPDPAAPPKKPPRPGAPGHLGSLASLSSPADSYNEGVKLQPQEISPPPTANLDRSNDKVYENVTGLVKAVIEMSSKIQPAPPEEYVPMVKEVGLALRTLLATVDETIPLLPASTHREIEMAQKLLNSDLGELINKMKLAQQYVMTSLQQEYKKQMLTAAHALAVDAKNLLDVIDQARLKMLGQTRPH

[9] = target: RAC-gamma serine/threonine-protein kinase (Homo sapiens) (UniProt Q9Y243); experiment: AKT3 Invitrogen selectivity data (BI); conditions: Compound concentration 3.0 uM
Sequence of RAC-gamma serine/threonine-protein kinase (Homo sapiens) (Q9Y243 whole entry): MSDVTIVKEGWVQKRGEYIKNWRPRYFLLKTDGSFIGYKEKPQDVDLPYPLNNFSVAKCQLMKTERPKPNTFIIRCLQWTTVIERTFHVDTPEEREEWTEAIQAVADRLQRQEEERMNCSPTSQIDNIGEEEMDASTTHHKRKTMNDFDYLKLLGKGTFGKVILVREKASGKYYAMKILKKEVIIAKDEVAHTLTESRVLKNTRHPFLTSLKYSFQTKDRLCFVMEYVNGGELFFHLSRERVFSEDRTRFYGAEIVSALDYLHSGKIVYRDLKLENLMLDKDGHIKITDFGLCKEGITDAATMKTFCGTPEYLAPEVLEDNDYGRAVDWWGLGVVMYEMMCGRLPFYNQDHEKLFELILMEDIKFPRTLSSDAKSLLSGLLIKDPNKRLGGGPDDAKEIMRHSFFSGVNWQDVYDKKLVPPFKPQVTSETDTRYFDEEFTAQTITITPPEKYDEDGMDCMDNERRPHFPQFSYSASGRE

[10] = target: Mitogen-activated protein kinase kinase kinase 14 (Homo sapiens) (UniProt Q99558); experiment: MAP3K14 Invitrogen selectivity data (BI); conditions: Compound concentration 3.0 uM
Sequence of Mitogen-activated protein kinase kinase kinase 14 (Homo sapiens) (Q99558 whole entry, looked up): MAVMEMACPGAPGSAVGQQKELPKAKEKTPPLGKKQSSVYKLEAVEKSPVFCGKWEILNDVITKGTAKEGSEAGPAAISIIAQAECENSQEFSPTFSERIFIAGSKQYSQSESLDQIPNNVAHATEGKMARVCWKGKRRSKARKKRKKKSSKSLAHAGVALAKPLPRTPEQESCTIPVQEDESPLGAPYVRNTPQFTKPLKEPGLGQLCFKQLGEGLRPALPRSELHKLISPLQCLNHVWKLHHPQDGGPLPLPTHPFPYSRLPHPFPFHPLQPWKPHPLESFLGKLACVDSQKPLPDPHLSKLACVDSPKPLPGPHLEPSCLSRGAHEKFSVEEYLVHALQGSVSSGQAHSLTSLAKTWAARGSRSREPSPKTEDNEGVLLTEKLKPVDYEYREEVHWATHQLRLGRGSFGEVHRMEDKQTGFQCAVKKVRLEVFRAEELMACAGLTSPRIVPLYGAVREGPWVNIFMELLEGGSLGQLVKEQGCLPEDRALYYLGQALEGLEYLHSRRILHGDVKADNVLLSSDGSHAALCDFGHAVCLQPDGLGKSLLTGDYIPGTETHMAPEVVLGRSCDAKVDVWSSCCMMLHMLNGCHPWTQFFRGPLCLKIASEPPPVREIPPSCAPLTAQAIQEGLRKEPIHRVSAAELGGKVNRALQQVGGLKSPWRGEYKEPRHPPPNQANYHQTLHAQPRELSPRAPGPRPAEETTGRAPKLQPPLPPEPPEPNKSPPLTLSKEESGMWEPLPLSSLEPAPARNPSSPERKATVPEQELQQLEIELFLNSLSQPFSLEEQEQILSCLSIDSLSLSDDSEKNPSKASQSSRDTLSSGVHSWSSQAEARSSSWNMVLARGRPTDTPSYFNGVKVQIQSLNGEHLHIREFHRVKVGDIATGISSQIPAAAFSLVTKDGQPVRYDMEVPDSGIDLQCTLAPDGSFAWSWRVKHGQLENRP

[11] = target: Melanocortin receptor 3 (Homo sapiens) (UniProt P41968); experiment: MC3H_AGON Cerep selectivity data (BI); conditions: filed as agonist, Compound concentration 20.0 uM
Sequence of Melanocortin receptor 3 (Homo sapiens) (P41968 whole entry): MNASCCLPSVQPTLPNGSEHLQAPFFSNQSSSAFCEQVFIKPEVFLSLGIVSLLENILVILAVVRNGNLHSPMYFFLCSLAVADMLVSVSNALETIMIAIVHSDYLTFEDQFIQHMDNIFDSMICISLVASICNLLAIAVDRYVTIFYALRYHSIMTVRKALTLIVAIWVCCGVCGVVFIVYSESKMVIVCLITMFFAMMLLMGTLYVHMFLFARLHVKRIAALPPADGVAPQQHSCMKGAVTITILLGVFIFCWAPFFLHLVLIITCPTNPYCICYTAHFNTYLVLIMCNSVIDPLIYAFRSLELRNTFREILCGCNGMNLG

[12] = target: T2, Ephrin type-B receptor 2 (Homo sapiens) (UniProt P29323); experiment: EPHB2 Invitrogen selectivity data (BI); conditions: Compound concentration 3.0 uM
T2 sequence (whole entry): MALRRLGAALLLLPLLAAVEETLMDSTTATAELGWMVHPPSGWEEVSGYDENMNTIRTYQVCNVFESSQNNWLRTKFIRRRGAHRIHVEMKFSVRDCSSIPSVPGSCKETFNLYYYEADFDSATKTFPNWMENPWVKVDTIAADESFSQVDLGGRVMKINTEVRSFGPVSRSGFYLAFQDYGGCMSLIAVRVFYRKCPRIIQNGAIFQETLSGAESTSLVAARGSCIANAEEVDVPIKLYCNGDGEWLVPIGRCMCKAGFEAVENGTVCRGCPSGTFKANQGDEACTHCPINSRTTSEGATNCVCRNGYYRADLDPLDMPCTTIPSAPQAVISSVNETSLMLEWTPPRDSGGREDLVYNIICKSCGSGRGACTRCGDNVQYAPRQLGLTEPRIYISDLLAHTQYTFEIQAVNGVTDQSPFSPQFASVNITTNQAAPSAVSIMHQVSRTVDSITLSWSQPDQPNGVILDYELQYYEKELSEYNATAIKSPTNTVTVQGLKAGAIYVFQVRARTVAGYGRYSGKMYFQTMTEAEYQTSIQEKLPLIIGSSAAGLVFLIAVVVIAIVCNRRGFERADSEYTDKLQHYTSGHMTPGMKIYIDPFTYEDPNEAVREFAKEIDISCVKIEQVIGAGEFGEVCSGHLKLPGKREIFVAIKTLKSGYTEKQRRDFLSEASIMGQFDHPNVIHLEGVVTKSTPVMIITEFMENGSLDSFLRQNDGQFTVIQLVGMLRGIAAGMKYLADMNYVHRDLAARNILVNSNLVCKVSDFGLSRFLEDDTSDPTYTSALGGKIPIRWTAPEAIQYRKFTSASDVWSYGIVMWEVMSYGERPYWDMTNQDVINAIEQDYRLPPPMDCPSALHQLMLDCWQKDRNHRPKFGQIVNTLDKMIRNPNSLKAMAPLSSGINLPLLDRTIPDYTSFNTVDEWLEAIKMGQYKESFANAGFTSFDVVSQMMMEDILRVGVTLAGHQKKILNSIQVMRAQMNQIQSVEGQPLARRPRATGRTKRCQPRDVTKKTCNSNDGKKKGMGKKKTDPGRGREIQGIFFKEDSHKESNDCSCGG

[13] = target: Sodium- and chloride-dependent GABA transporter 1 (Rattus norvegicus) (UniProt P23978); experiment: GABATRANS/R Cerep selectivity data (BI); conditions: Compound concentration 20.0 uM

Sequence of Alpha-2C adrenergic receptor (Homo sapiens) (P18825 whole entry): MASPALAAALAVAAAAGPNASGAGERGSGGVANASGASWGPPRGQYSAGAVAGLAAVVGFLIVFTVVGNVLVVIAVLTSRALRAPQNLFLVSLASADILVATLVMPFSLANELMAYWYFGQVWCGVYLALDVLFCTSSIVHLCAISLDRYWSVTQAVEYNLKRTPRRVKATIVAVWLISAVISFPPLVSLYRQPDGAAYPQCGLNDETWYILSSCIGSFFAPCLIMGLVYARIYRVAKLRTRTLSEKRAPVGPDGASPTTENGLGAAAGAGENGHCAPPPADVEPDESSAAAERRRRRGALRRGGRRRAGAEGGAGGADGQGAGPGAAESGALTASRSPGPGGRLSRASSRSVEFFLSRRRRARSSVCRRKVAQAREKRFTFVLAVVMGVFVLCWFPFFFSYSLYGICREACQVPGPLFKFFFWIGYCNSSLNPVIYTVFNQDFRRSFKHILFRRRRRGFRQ

CN(C)C(=O)Cn1cc(-c2nc(C3(c4ccc(-c5cnc(N)nc5)cc4)CC3)no2)cn1 [BI 0153]
inactive: inhibition [1] 4.1%

CN(C)C(=O)Cn1cc(-c2nc([C@@](C)(c3ccc(-c4cnc(N)nc4)cc3)C3CC3)no2)cn1 [BI 665915]
inactive: residual activity [2] 98.5% | residual activity [3] 97.5% | residual activity [4] 101% | residual activity [5] 96% | residual activity [6] 87% | residual activity [7] 97% | residual activity [8] 87.5% | residual activity [9] 102% | residual activity [10] 98% | residual activity [11] 94% | residual activity [12] 93.5% | residual activity [13] 96%
